The record followed here is patent US20040156869A1, “2-substituted quinazolin-4-ylamine analogues” (Neurogen Corporation, priority 2002, published 2004).

This assay deals with human capsaicin receptor (VR1) (Homo sapiens, UniProt Q8NER1). Description: Capsaicin receptor binding assay ([3H]RTX competition, VR1-transfected HEK293 membranes).
human capsaicin receptor (VR1), sequence (Q8NER1 whole entry): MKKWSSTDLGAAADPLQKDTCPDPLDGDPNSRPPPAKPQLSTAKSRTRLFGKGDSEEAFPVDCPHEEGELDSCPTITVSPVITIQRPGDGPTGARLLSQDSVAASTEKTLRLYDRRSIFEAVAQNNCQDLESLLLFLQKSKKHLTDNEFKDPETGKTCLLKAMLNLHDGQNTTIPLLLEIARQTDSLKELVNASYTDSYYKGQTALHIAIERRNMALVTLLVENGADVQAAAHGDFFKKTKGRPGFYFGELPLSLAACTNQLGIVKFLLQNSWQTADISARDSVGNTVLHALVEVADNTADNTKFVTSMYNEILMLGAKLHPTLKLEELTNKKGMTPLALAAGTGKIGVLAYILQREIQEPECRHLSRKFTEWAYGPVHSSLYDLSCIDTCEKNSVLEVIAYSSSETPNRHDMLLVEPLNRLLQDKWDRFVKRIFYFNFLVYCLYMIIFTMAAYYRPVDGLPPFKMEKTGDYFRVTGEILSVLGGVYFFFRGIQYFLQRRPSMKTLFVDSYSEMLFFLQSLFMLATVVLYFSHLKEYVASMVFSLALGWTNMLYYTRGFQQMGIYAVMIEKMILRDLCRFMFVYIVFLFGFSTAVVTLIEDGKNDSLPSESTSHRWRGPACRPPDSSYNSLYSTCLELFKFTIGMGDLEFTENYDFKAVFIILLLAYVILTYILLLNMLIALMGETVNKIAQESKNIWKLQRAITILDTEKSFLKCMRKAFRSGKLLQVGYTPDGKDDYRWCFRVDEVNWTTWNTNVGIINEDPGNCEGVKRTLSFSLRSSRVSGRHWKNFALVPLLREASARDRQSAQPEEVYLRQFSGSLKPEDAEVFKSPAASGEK
`FC(F)(F)c1ccc(Nc2nc(COCc3cccnc3)nc3cc(-c4ncccc4C(F)(F)F)ccc23)cn1` [Compound 45, [2-(Pyridin-3-ylmethoxymethyl)-7-(3-trifluoromethyl-pyridin-2-yl)-quinazolin-4-yl]-(6-trifluoromethyl-pyridin-3-yl)-amine] registered a Ki of less than 1000 nM.

Compound `FC(F)(F)c1ccc(Nc2nc(COCc3ccncc3)nc3cc(-c4ncccc4C(F)(F)F)ccc23)cn1` [Compound 46, [2-(Pyridin-4-ylmethoxymethyl)-7-(3-trifluoromethyl-pyridin-2-yl)-quinazolin-4-yl]-(6-trifluoromethyl-pyridin-3-yl)-amine] returned a Ki of less than 1000 nM. In turn, `COCCc1nc(Nc2ccc(C(C)(C)C)cc2)c2ccc(-c3ncccc3C(F)(F)F)cc2n1` [Compound 47, (4-tert-Butyl-phenyl)-[2-(2-methoxy-ethyl)-7-(3-trifluoromethyl-pyridin-2-yl)-quinazolin-4-yl]-amine] registered a Ki of less than 1000 nM. In the case of `COCCc1nc(Nc2ccc(C(C)C)cc2)c2ccc(-c3ncccc3C(F)(F)F)cc2n1` [Compound 48, (4-Isopropyl-phenyl)-[2-(2-methoxy-ethyl)-7-(3-trifluoromethyl-pyridin-2-yl)-quinazolin-4-yl]-amine] it was less than 1000 nM; in that of `COCCc1nc(Nc2ccc(C(C)(C)C)nc2)c2ccc(-c3ncccc3C(F)(F)F)cc2n1` [Compound 49, (6-tert-Butyl-pyridin-3-yl)-[2-(2-methoxy-ethyl)-7-(3-trifluoromethyl-pyridin-2-yl)-quinazolin-4-yl]-amine], less than 1000 nM; in that of `COCc1nc(Nc2ccc(C(C)(C)C)cc2)c2ncc(-c3ncccc3C(F)(F)F)cc2n1` [Compound 50, (4-tert-Butyl-phenyl)-[2-methoxymethyl-7-(3-trifluoromethyl-pyridin-2-yl)-pyrido[3,2-d]pyrimidin-4-yl]-amine], less than 1000 nM. In turn, `COCc1nc(Nc2ccc(C(C)C)cc2)c2ncc(-c3ncccc3C(F)(F)F)cc2n1` [Compound 51, (4-Isopropyl-phenyl)-[2-methoxymethyl-7-(3-trifluoromethyl-pyridin-2-yl)-pyrido[3,2-d]pyrimidin-4-yl]-amine] came in with a Ki of less than 1000 nM. The compound `CCc1ccc(Nc2nc(COC)nc3cc(-c4ncccc4C(F)(F)F)cnc23)cc1` [Compound 52, (4-Ethyl-phenyl)-[2-methoxymethyl-7-(3-trifluoromethyl-pyridin-2-yl)-pyrido[3,2-d]pyrimidin-4-yl]-amine] displayed a Ki of less than 1000 nM.

Compound `COCc1nc(Nc2ccc(C(F)(F)F)nc2)c2ncc(-c3ncccc3C(F)(F)F)cc2n1` [Compound 53, [2-Methoxymethyl-7-(3-trifluoromethyl-pyridin-2-yl)-pyrido[3,2-d]pyrimidin-4-yl]-(6-trifluoromethyl-pyridin-3-yl)-amine] came in with a Ki of less than 1000 nM. Compound `COCc1nc(Nc2ccc(C(C)=O)cc2)c2ncc(-c3ncccc3C(F)(F)F)cc2n1` [Compound 54, 1-{4-[2-Methoxymethyl-7-(3-trifluoromethyl-pyridin-2-yl)-pyrido[3,2-d]pyrimidin-4-ylamino]-phenyl}-ethanone] showed a Ki of less than 1000 nM. `COCc1nc(Nc2ccc(C#N)cc2)c2ncc(-c3ncccc3C(F)(F)F)cc2n1` [Compound 55, 4-[2-Methoxymethyl-7-(3-trifluoromethyl-pyridin-2-yl)-pyrido[3,2-d]pyrimidin-4-ylamino]-benzonitrile] yielded a Ki of less than 1000 nM. Compound `COCc1nc(Nc2ccc(C3CCCCC3)cc2)c2ncc(-c3ncccc3C(F)(F)F)cc2n1` [Compound 56, (4-Cyclohexyl-phenyl)-[2-methoxymethyl-7-(3-trifluoromethyl-pyridin-2-yl)-pyrido[3,2-d]pyrimidin-4-yl]-amine] returned a Ki of less than 1000 nM.

Compound `CCCC(=O)c1ccc(Nc2nc(COC)nc3cc(-c4ncccc4C(F)(F)F)cnc23)cc1` [Compound 57, 1-{4-[2-Methoxymethyl-7-(3-trifluoromethyl-pyridin-2-yl)-pyrido[3,2-d]pyrimidin-4-ylamino]-phenyl}-butan-1-one] had a Ki of less than 1000 nM. The value for `COCc1nc(Nc2ccc(C(C)(C)COC)cc2)c2ncc(-c3ncccc3C(F)(F)F)cc2n1` [Compound 58, [4-(2-Methoxy-1,1-dimethyl-ethyl)-phenyl]-[2-methoxymethyl-7-(3-trifluoromethyl-pyridin-2-yl)-pyrido[3,2-d]pyrimidin-4-yl]-amine] was less than 1000 nM. Turning to `COCc1nc(Nc2ccc(C(C)(C)C)cc2)c2ccc(-c3ncccc3Cl)nc2n1` [Compound 59, (4-tert-Butyl-phenyl)-[7-(3-chloro-pyridin-2-yl)-2-methoxymethyl-pyrido[2,3-d]pyrimidin-4-yl]-amine], the Ki is less than 1000 nM. Compound `COCc1nc(Nc2ccc(C(C)C)cc2)c2ccc(-c3ncccc3Cl)nc2n1` [Compound 60, [7-(3-Chloro-pyridin-2-yl)-2-methoxymethyl-pyrido[2,3-d]pyrimidin-4-yl]-(4-isopropyl-phenyl)-amine] came in with a Ki of less than 1000 nM. In the case of `COCc1nc(Nc2ccc(C(C)(C)COC)cc2)c2ccc(-c3ncccc3Cl)nc2n1` [Compound 61, [7-(3-Chloro-pyridin-2-yl)-2-methoxymethyl-pyrido[2,3-d]pyrimidin-4-yl]-[4-(2-methoxy-1,1-dimethyl-ethyl)-phenyl]-amine] it was less than 1000 nM; in that of `COCc1nc(Nc2ccc(C(C)(C)C#N)cc2)c2ccc(-c3ncccc3Cl)nc2n1` [Compound 62, 2-{4-[7-(3-Chloro-pyridin-2-yl)-2-methoxymethyl-pyrido[2,3-d]pyrimidin-4-ylamino]-phenyl}-2-methyl-propionitrile], less than 1000 nM; in that of `CCC(C)c1ccc(Nc2nc(COC)nc3nc(-c4ncccc4Cl)ccc23)cc1` (stereo not shown) [Compound 63, (4-sec-Butyl-phenyl)-[7-(3-chloro-pyridin-2-yl)-2-methoxymethyl-pyrido[2,3-d]pyrimidin-4-yl]-amine], less than 1000 nM. With `COCc1nc(Nc2ccc(C(C)(C)C)cc2)c2ncc(-c3ncccc3Cl)cc2n1` [Compound 65, (4-tert-Butyl-phenyl)-[7-(3-chloro-pyridin-2-yl)-2-methoxymethyl-pyrido[3,2-d]pyrimidin-4-yl]-amine], the Ki is less than 1000 nM. In the case of `COCc1nc(Nc2ccc(C(C)C)cc2)c2ncc(-c3ncccc3Cl)cc2n1` [Compound 66, [7-(3-Chloro-pyridin-2-yl)-2-methoxymethyl-pyrido[3,2-d]pyrimidin-4-yl]-(4-isopropyl-phenyl)-amine] it was less than 1000 nM. In the case of `COCc1nc(Nc2ccc(C(C)(C)C)nc2)c2ccc(-c3ncccc3Cl)cc2n1` [Compound 68, (6-tert-Butyl-pyridin-3-yl)-[7-(3-chloro-pyridin-2-yl)-2-methoxymethyl-quinazolin-4-yl]-amine] it was less than 1000 nM. Take `COCc1nc(Nc2ccc(C(C)C)cc2)c2ccc(-c3ncccc3Cl)cc2n1` [Compound 69, [7-(3-Chloro-pyridin-2-yl)-2-methoxymethyl-quinazolin-4-yl]-(4-isopropyl-phenyl)-amine]: the Ki was less than 1000 nM.

Turning to `COCc1nc(Nc2ccc(C(F)(F)F)cc2)c2ccc(-c3ncccc3Cl)cc2n1` [Compound 70, [7-(3-Chloro-pyridin-2-yl)-2-methoxymethyl-quinazolin-4-yl]-(4-trifluoromethyl-phenyl)-amine], the Ki is less than 1000 nM. The value for `COCc1nc(Nc2ccc(C(C)(C)C)cc2)c2ccc(-c3ncccc3Cl)cc2n1` [Compound 71, (4-tert-Butyl-phenyl)-[7-(3-chloro-pyridin-2-yl)-2-methoxymethyl-quinazolin-4-yl]-amine] was less than 1000 nM; that for `COCc1nc(Nc2ccc(C(C)C)cc2)c2ccc(-c3ncccc3C(F)(F)F)cc2n1` [Compound 72, (4-Isopropyl-phenyl)-[2-methoxymethyl-7-(3-trifluoromethyl-pyridin-2-yl)-quinazolin-4-yl]-amine] was less than 1000 nM. In the case of `COCc1nc(Nc2ccc(C(C)(C)C)cc2)c2ccc(-c3ncccc3C(F)(F)F)cc2n1` [Compound 73, (4-tert-Butyl-phenyl)-[2-methoxymethyl-7-(3-trifluoromethyl-pyridin-2-yl)-quinazolin-4-yl]-amine] it was less than 1000 nM; in that of `COCc1nc(Nc2ccc(C(C)(C)C)nc2)c2ccc(-c3ncccc3C(F)(F)F)cc2n1` [Compound 74, (6-tert-Butyl-pyridin-3-yl)-[2-methoxymethyl-7-(3-trifluoromethyl-pyridin-2-yl)-quinazolin-4-yl]-amine], less than 1000 nM.

In the case of `COCCOCc1nc(Nc2ccc(C(C)(C)C)cc2)c2ccc(-c3ncccc3Cl)nc2n1` [Compound 75, (4-tert-Butyl-phenyl)-[7-(3-chloro-pyridin-2-yl)-2-(2-methoxy-ethoxymethyl)-pyrido[2,3-d]pyrimidin-4-yl]-amine], the Ki was less than 1000 nM. The value for `COCCOCc1nc(Nc2ccc(C(F)(F)F)cc2)c2ccc(-c3ncccc3Cl)nc2n1` [Compound 76, [7-(3-Chloro-pyridin-2-yl)-2-(2-methoxy-ethoxymethyl)-pyrido[2,3-d]pyrimidin-4-yl]-(4-trifluoromethyl-phenyl)-amine] was less than 1000 nM; that for `COCCOCc1nc(Nc2ccc(C(C)C)cc2)c2ccc(-c3ncccc3Cl)nc2n1` [Compound 77, [7-(3-Chloro-pyridin-2-yl)-2-(2-methoxy-ethoxymethyl)-pyrido[2,3-d]pyrimidin-4-yl]-(4-isopropyl-phenyl)-amine] was less than 1000 nM. For `COCc1nc(Nc2ccc(C(C)C)cc2)c2ccc(-c3ncccc3C)cc2n1` [Compound 78, (4-Isopropyl-phenyl)-[2-methoxymethyl-7-(3-methyl-pyridin-2-yl)-quinazolin-4yl]-amine], the Ki is less than 1000 nM. With `CCOCc1nc(Nc2ccc(C(C)(C)C)cc2)c2ccc(-c3ncccc3Cl)cc2n1` [Compound 79, (4-tert-Butyl-phenyl)-[7-(3-chloro-pyridin-2-yl)-2-ethoxymethyl-quinazolin-4-yl]-amine], the Ki is less than 1000 nM. In the case of `CCOCc1nc(Nc2ccc(C(C)C)cc2)c2ccc(-c3ncccc3Cl)cc2n1` [Compound 80, [7-(3-Chloro-pyridin-2-yl)-2-ethoxymethyl-quinazolin-4-yl]-(4-isopropyl-phenyl)-amine] it was less than 1000 nM.
